Earlier results, collected in patent publication US9457010B2, “Compositions for use in treating or preventing metabolic stress-induced lung injury and methods for increasing physical capacity of mammalian livestock” (Nutri-fit GmbH & Co. KG, priority 2009, dated 2016).

Test system: pulmonary function
Details: 3 weeks isocaloric diet; endotoxin challenge

CCCCC/C=C\C/C=C\CCCCCCCC(=O)O [linoleate]
histological evidence in lung: vascular congestion, intra-alveolar edema and alveolar septa thickening
